Patent publication US20090209619A1, “Depression of herg k+ channel function in mammallan cells and applications to the control of cancer cells division” (priority 2004, published 2009)
Marks after values point to notes of the source that are not given here.

Tests used:
MCF-7 cells = details: cited from earlier work
EAG = biological target: T1, EAG (Homo sapiens, UniProt O95259); details: extracellular perfusion; cited from earlier work
T1 sequence (O95259 1-989): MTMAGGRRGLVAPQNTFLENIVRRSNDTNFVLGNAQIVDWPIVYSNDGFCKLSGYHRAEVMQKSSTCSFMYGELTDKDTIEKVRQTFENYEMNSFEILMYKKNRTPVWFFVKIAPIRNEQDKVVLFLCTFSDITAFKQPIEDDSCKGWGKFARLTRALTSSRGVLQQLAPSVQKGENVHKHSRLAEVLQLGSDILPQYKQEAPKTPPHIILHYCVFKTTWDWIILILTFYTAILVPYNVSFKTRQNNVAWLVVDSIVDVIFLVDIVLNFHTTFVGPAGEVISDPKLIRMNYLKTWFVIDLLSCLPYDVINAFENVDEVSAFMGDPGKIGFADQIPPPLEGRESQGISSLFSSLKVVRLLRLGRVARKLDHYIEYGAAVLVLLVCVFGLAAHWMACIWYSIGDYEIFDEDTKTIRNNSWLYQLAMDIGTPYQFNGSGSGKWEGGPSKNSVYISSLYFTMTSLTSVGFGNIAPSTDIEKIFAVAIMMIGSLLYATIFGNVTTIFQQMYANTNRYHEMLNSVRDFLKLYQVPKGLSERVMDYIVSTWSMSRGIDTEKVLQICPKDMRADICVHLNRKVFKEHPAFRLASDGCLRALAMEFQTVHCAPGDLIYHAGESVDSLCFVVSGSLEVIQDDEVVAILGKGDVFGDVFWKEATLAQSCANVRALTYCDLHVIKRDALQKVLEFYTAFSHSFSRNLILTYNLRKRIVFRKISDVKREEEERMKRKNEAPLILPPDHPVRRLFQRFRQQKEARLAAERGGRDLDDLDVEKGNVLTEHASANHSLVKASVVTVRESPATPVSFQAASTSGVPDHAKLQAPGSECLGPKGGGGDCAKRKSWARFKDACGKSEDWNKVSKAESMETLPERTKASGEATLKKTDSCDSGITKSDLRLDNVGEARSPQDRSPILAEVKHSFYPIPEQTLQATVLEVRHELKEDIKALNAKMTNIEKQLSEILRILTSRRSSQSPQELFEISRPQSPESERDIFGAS

SHSY5Y = test: Cancer cell proliferation by population doubling time (PDT), SHSY5Y; format: cell-based, human; details: blocker 1 μM; for population doubling time: 30 min in serum-free medium, cells counted 5 h and 48 h after seeding
Method: (§1) The human breast cancer cell lines MCF-7, BT132, and Sk-Br-3, human neuroblastoma cell line SHSY5Y, murine atrial tumor cell line HL-1 were used. These cell are known to express HERG channels. For chemical blocking of HERG conductance, tumor cells were incubated with dofetilide (1 μM), the anti-arrhythmic agent E4031 (1 μM) or cisapride (1 μM) for 30 min in serum-free medium. Control experiments wherein no dofetilide, no E-4031 and no cisapride was used were also performed.
(§2) Cell proliferation was assessed by characterizing the log phase growth with population doubling time (PDT) calculated by the equation: 1/(3.32*(log NH−log NI)/(t2−t1)), where NH is the number of cells harvested at the end of the growth period (at time t2) and NI is the number of cells at 5 hours (t1) after seed. Cells were counted by a flow cytometer (EPICS XL; Beckman Coulter Canada, Inc.), and the number obtained at 5 h (t1) after seeding was taken as an initial cell number (NI), and the number at 48 h (t2) after seeding was taken as an endpoint number (NH). The longer the PDT is, the slower the growth is.
(§3) In experiments involving interference RNA, in this case siRNA, the cells were transfected with siRNA using lipofectamine-2000 as a carrier to deliver the siRNA to the cells, according to the manufacturer's protocols. The sequence of our siRNA targeting HERG position 3498 bp is […] (SEQ ID NO:1). A negative control targeting the following sequence: […] (SEQ ID NO:2) has been used. The siRNA is designed as cassette using U6 as the promoter and its efficacy was validated by its ability to decrease HERG mRNA by around 78% determined by real-time RT-PCR. SiRNA targeting the following 2 target sequences: […] (SEQ ID 03) (starting at 255 bp) and […] (SEQ ID 04) (starting at 2609 bp) has also been tested. As an siRNA cassette is used, these sequences (SEQ ID 01-04) are also DNA sequences that are injected in the cells to produce in situ the siRNA that will interfere with expression of the HERG gene.

MCF-7 [1] = test: Cancer cell proliferation by population doubling time (PDT), MCF-7; format: cell-based, human; details: blocker 1 μM; for population doubling time: 30 min in serum-free medium, cells counted 5 h and 48 h after seeding
Method: as §1, §2, §3

HL-1 = test: Cancer cell proliferation by population doubling time (PDT), HL-1; format: cell-based, murine; details: blocker 1 μM; for population doubling time: 30 min in serum-free medium, cells counted 5 h and 48 h after seeding
Method: as §1, §2, §3

Sk-Br-3 [2] = test: Cancer cell proliferation by population doubling time (PDT), Sk-Br-3; format: cell-based, human; details: blocker 1 μM; for population doubling time: 30 min in serum-free medium, cells counted 5 h and 48 h after seeding
Method: as §1, §2, §3

BT132 = test: Cancer cell proliferation by population doubling time (PDT), BT132; format: cell-based, human; details: blocker 1 μM; for population doubling time: 30 min in serum-free medium, cells counted 5 h and 48 h after seeding
Method: as §1, §2, §3

MCF-7 [3] = test: Tumor growth in nude mice inoculated subcutaneously with MCF-7; details: for tumor volume, Day 7 / tumor volume, Day 1: MCF-7 tumor in nude mice, 5 μg/tumor single intratumoral injection; for tumor volume, Day 7: 7 days after treatment; for tumor volume, Day 1: day of treatment; for % changes of tumor volume over control: MCF-7 tumor, 5 μg/tumor, day 7
SK-BR-3 [4] = test: Tumor growth in nude mice inoculated subcutaneously with SK-BR-3; details: for tumor volume, Day 7 / tumor volume, Day 1: Sk-Br-3 tumor in nude mice, 5 μg/tumor single intratumoral injection; for tumor volume, Day 7: 7 days after treatment; for tumor volume, Day 1: day of treatment; for % changes of tumor volume over control: Sk-Br-3 tumor, 5 μg/tumor, day 7

SMILES | effect on growth/proliferation of MCF-7 human breast cancer cells (MCF-7 cells) | inhibition of cell proliferation (MCF-7 cells; extracellular perfusion, cell line not given) | inhibition of EAG current (EAG) | % changes of population doubling time over control (SHSY5Y) | population doubling time (SHSY5Y) | % changes of population doubling time over control (MCF-7 [1]) | population doubling time (MCF-7 [1]) | % changes of population doubling time over control (HL-1) | population doubling time (HL-1) | % changes of population doubling time over control (Sk-Br-3 [2]) | population doubling time (Sk-Br-3 [2]) | % changes of population doubling time over control (BT132) | population doubling time (BT132) | tumor volume, Day 7 (MCF-7 [3]) | tumor volume, Day 1 (MCF-7 [3]) | % changes of tumor volume over control (MCF-7 [3]) | tumor volume, Day 7 (SK-BR-3 [4]) | tumor volume, Day 1 (SK-BR-3 [4]) | % changes of tumor volume over control (SK-BR-3 [4])
CCCCc1oc2ccccc2c1C(=O)c1cc(I)c(OCCN(CC)CC)c(I)c1 [amiodarone] | inhibitory effects | – | – | – | – | – | – | – | – | – | – | – | – | – | – | – | – | – | –
COc1ccc(CCN2CCC(Nc3nc4ccccc4n3Cc3ccc(F)cc3)CC2)cc1 [astemizole] | – | ~23% | ~20% | – | – | – | – | – | – | – | – | – | – | – | – | – | – | – | –
CN(CCOc1ccc(NS(C)(=O)=O)cc1)CCc1ccc(NS(C)(=O)=O)cc1 [Dofetilide, dofetilide] | – | – | – | 59% | 95.2 ± 10.2* hours | 55% | 70.4 ± 6.2* hours | 30% | 85.5 ± 9.2 h | 128% | 184.0 ± 16.6* hours | 56% | 84.8 ± 7.5* hours | – | – | – | – | – | –
Cc1cccc(CCN2CCC(C(=O)c3ccc(NS(C)(=O)=O)cc3)CC2)n1 [E-4031] | – | – | – | 70% | 101.8 ± 11.5* hours | 43% | 64.9 ± 11.5* hours | 37% | 93.5 ± 10.0* hours | 98% | 165.3 ± 15.2* hours | 48% | 80.5 ± 8.2* hours | 3.7 ± 0.8^+ cm^3 | 3.5 ± 0.6 cm^3 | −30% | 4.1 ± 0.6*^+ cm^3 | 2.1 ± 1.0 cm^3 | −28%
COc1cc(N)c(Cl)cc1C(=O)NC1CCN(CCCOc2ccc(F)cc2)CC1OC (stereo not shown) [Cisapride, cisapride] | – | – | – | 57% | 92.0 ± 8.3* hours | 58% | 71.7 ± 7.3* hours | 47% | 100.3 ± 9.8* hours | 114% | 174.3 ± 17.7* hours | 62% | 88.1 ± 9.0* hours | 3.0 ± 0.4^+ cm^3 | 3.2 ± 0.5 cm^3 | −42% | 3.1 ± 0.3^+ cm^3 | 2.4 ± 1.3 cm^3 | −45%
Cc1cc(N)c2ccccc2[n+]1CCCCCCCCCC[n+]1c(C)cc(N)c2ccccc21 [dequalinium] | inhibitory effects | – | – | – | – | – | – | – | – | – | – | – | – | – | – | – | – | – | –
